Test results taken from paper PMC8286840, “Identifying SARS-CoV-2 antiviral compounds by screening for small molecule inhibitors of Nsp3 papain-like protease” (Biochemical Journal, 2021).
Where a name gives a salt, the structure may show the parent alone. Read-outs that look alike come from different tables or passages of the source.

Legend:
[1] = target: T1, SARS-CoV-2 PLpro (nsp3 1564–1878) (Severe acute respiratory syndrome coronavirus 2, UniProt P0DTD1); experiment: biochemical; design: FRET-quenched peptide (Pro3) cleavage by PLpro, 10 min pre-incubation, slope over 20 min, normalised to no-compound control; settings: high concentration screen, read-out: % of control remaining
[2] = target: T1, SARS-CoV-2 PLpro (nsp3 1564–1878); experiment: biochemical; design: FRET-quenched peptide (Pro3) cleavage by PLpro, 10 min pre-incubation, slope over 20 min, normalised to no-compound control; settings: low concentration screen, read-out: % of control remaining

## O=c1c(-c2ccc(O)cc2)coc2cc(O)cc(O)c12 [Genistein]
[1]; Well no.=573
  remaining activity at 3.75 µM: 94%
[1]; Well no.=3315
  remaining activity at 3.75 µM: 101%
[1]; Well no.=3947
  remaining activity at 3.75 µM: 98.5%
[1]; Well no.=6492
  remaining activity at 3.75 µM: 103%
[2]; Well no.=573
  remaining activity at 1.25 µM: 95%
[2]; Well no.=3315
  remaining activity at 1.25 µM: 94.8%
[2]; Well no.=3947
  remaining activity at 1.25 µM: 98.6%
[2]; Well no.=6492
  remaining activity at 1.25 µM: 103%

## CC1(C)CCC[C@](C)([C@H]2CC[C@]3(C)[C@@H]2[C@H](O)C[C@@H]2[C@@]4(C)CC[C@H](O)C(C)(C)[C@@H]4[C@@H](O)C[C@]23C)O1 [Panaxatriol]
[1]; Well no.=3699
  remaining activity at 3.75 µM: 101%
[2]; Well no.=3699
  remaining activity at 1.25 µM: 94.8%

## CC1(C)CCC(NC(=O)[C@@H](N)CCC(=O)O)CC1 [CR 2249]
[1]; Well no.=901
  remaining activity at 3.75 µM: 105%
[2]; Well no.=901
  remaining activity at 1.25 µM: 108%

## CN(C)c1nc(N)c(C(=O)NC(=N)N)nc1Cl [5-(N,N-Dimethyl)amiloride hydrochloride]
[1]; Well no.=63
  remaining activity at 3.75 µM: 99%
[2]; Well no.=63
  remaining activity at 1.25 µM: 102%

## C=CCN1CC[C@]23c4c5ccc(O)c4O[C@H]2/C(=N/N=C2\CC[C@@]4(O)[C@H]6Cc7ccc(O)c8c7[C@@]4(CCN6CC=C)[C@H]2O8)CC[C@@]3(O)[C@H]1C5 [Naloxonazine dihydrochloride]
[1]; Well no.=894
  remaining activity at 3.75 µM: 107%
[2]; Well no.=894
  remaining activity at 1.25 µM: 105%

## COc1cc(C(=O)OCCCCNC(=N)N)cc(OC)c1O [4-{[amino(imino)methyl]amino}butyl 4-hydroxy-3,5-dimethoxybenzoate]
[1]; Well no.=5718
  remaining activity at 3.75 µM: 98.3%
[2]; Well no.=5718
  remaining activity at 1.25 µM: 93.5%

## CCN1C[C@]2(C)CC[C@H](OC)[C@]34C1[C@H]([C@@H](O)[C@H]23)[C@@]1(O)CC[C@H]2C[C@@H]4[C@@H]1C(=O)O2 [Heteratisine]
[1]; Well no.=3153
  remaining activity at 3.75 µM: 105%
[2]; Well no.=3153
  remaining activity at 1.25 µM: 102%

## CN(C)CCC[C@@]1(c2ccc(F)cc2)OCc2cc(C#N)ccc21 [Escitalopram Oxalate]
[1]; Well no.=5128
  remaining activity at 3.75 µM: 107%
[2]; Well no.=5128
  remaining activity at 1.25 µM: 109%

## CC1=C(/C=C/C(C)=C/C=C/C(C)=C\C(=O)O)C(C)(C)CCC1 [Isotretinoin]
[1]; Well no.=6303
  remaining activity at 3.75 µM: 108%
[2]; Well no.=6303
  remaining activity at 1.25 µM: 108%

## O=C(O)/C=C(\CC(=O)O)C(=O)O [trans-Aconitic acid]
[1]; Well no.=6827
  remaining activity at 3.75 µM: 95.7%
[2]; Well no.=6827
  remaining activity at 1.25 µM: 94.2%

## CN1CCN(CCCN2c3ccccc3Sc3ccc(C(F)(F)F)cc32)CC1 [Trifluoperazine (dihydrochloride)]
[1]; Well no.=6369
  remaining activity at 3.75 µM: 105%
[2]; Well no.=6369
  remaining activity at 1.25 µM: 105%

## CCOC(=O)c1cncn1[C@H](C)c1ccccc1 [Etomidate]
[1]; Well no.=5187
  remaining activity at 3.75 µM: 101%
[2]; Well no.=5187
  remaining activity at 1.25 µM: 100%

## CN1[C@@H]2CC[C@H]1C[C@@H](OC(c1ccccc1)c1ccccc1)C2 [Benztropine (mesylate)]
[1]; Well no.=8235
  remaining activity at 3.75 µM: 99.9%
[2]; Well no.=8235
  remaining activity at 1.25 µM: 100%

## O=C(Nc1cccnc1)N1CCC(Cc2cccc(Oc3ccc(C(F)(F)F)cn3)c2)CC1 [PF-3845]
[1]; Well no.=4643
  remaining activity at 3.75 µM: 90.4%
[2]; Well no.=4643
  remaining activity at 1.25 µM: 96.6%

## NC(=O)c1cc[n+](CC2=C(C(=O)O)N3C(=O)[C@@H](NC(=O)[C@@H](c4ccccc4)S(=O)(=O)[O-])[C@H]3SC2)cc1 [Cefsulodin sodium salt hydrate]
[1]; Well no.=92
  remaining activity at 3.75 µM: 99.3%
[2]; Well no.=92
  remaining activity at 1.25 µM: 98.3%

## NC(=O)c1ccc[n+]([O-])c1 [Nicotinamide N-oxide]
[1]; Well no.=6247
  remaining activity at 3.75 µM: 107%
[1]; Well no.=8269
  remaining activity at 3.75 µM: 102%
[1]; Well no.=8347
  remaining activity at 3.75 µM: 92.3%
[2]; Well no.=6247
  remaining activity at 1.25 µM: 105%
[2]; Well no.=8269
  remaining activity at 1.25 µM: 106%
[2]; Well no.=8347
  remaining activity at 1.25 µM: 101%

## O=C(O)/C=C/c1c[nH]c2ccccc12 [3-Beta-Indoleacrylic acid]
[1]; Well no.=3773
  remaining activity at 3.75 µM: 101%
[2]; Well no.=3773
  remaining activity at 1.25 µM: 99%

## NCCS(=O)O [Hypotaurine]
[1]; Well no.=464
  remaining activity at 3.75 µM: 102%
[1]; Well no.=7779
  remaining activity at 3.75 µM: 103%
[2]; Well no.=464
  remaining activity at 1.25 µM: 102%
[2]; Well no.=7779
  remaining activity at 1.25 µM: 106%

## COc1ccc(N2C(=O)CSC2c2cccc(Br)c2)c(OC)c1 (stereo not shown) [2-(3-bromophenyl)-3-(2,4-dimethoxyphenyl)-1,3-thiazolidin-4-one]
[1]; Well no.=6016
  remaining activity at 3.75 µM: 98.8%
[2]; Well no.=6016
  remaining activity at 1.25 µM: 101%

## O=C1C2CCN(CC2)C1(CO)CO [PRIMA-1]
[1]; Well no.=6486
  remaining activity at 3.75 µM: 97.6%
[2]; Well no.=6486
  remaining activity at 1.25 µM: 96.7%

## O=C(OC12CC3CC(CC(C3)C1)C2)c1ccc(NCc2cc(O)ccc2O)cc1 [Adaphostin]
[1]; Well no.=5772
  remaining activity at 3.75 µM: 109%
[2]; Well no.=5772
  remaining activity at 1.25 µM: 105%

## O=C(O)[C@@H]1CCN1 [L-azetidine-2-carboxylic acid]
[1]; Well no.=103
  remaining activity at 3.75 µM: 104%
[2]; Well no.=103
  remaining activity at 1.25 µM: 105%

## Cc1cc2nc(NCCCO)n(CC(=O)c3cc(C(C)(C)C)c(O)c(C(C)(C)C)c3)c2cc1C [CID2858522]
[1]; Well no.=5503
  remaining activity at 3.75 µM: 109%
[2]; Well no.=5503
  remaining activity at 1.25 µM: 104%

## CCCCCCC(=O)CCCCCC/C=C/C[C@@H](O)[C@H](O)[C@@](N)(CO)C(=O)O [Myriocin]
[1]; Well no.=3417
  remaining activity at 3.75 µM: 101%
[2]; Well no.=3417
  remaining activity at 1.25 µM: 99.6%

## NC[C@@H](O)c1ccc(O)c(O)c1 [L(-)-Norepinephrine bitartrate]
[1]; Well no.=58
  remaining activity at 3.75 µM: 99.2%
[2]; Well no.=58
  remaining activity at 1.25 µM: 102%

## CCCCC/C=C\C/C=C\C/C=C\CCCCCCC(=O)O [8(Z), 11(Z), 14(Z)-Eicosatrienoic Acid]
[1]; Well no.=4548
  remaining activity at 3.75 µM: 96.4%
[2]; Well no.=4548
  remaining activity at 1.25 µM: 91.1%

## CCOc1ccc2ccccc2c1C(=O)N[C@@H]1C(=O)N2[C@@H]1SC(C)(C)[C@@H]2C(=O)O [Nafcillin (sodium monohydrate)]
[1]; Well no.=8660
  remaining activity at 3.75 µM: 98.1%
[2]; Well no.=8660
  remaining activity at 1.25 µM: 99%

## Nc1ccc(C(=O)NCC(=O)O)cc1 [4-Aminohippuric Acid]
[1]; Well no.=5181
  remaining activity at 3.75 µM: 95.3%
[1]; Well no.=6349
  remaining activity at 3.75 µM: 103%
[2]; Well no.=5181
  remaining activity at 1.25 µM: 95.9%
[2]; Well no.=6349
  remaining activity at 1.25 µM: 105%

## CCCCC/C=C\C[C@@H](/C=C/C=C\C/C=C\CCCC(=O)O)OO [12(S)-HPETE]
[1]; Well no.=4329
  remaining activity at 3.75 µM: 103%
[2]; Well no.=4329
  remaining activity at 1.25 µM: 110%

## CCOC(=O)c1ccc(NC2CCCCC2)c(N)c1 [Ferrostatin-1]
[1]; Well no.=6252
  remaining activity at 3.75 µM: 98%
[2]; Well no.=6252
  remaining activity at 1.25 µM: 103%

## OCCN1C[C@H](O)[C@@H](O)[C@H](O)[C@H]1CO [Miglitol]
[1]; Well no.=8340
  remaining activity at 3.75 µM: 92.7%
[2]; Well no.=8340
  remaining activity at 1.25 µM: 92.9%
